Results on 21 molecules are retold here after patent publication US7696212B2, “Xanthine derivatives, the preparation thereof and their use as pharmaceutical compositions” (Boehringer Ingelheim Pharma GmbH and Co. KG, priority 2002, dated 2010).

Where a name gives a salt, the structure may show the parent alone.

The target of one data set is T1, DPP-IV (Homo sapiens, UniProt P27487).
T1 construct: an extract of human colon carcinoma cell line Caco-2 is used as the DPP IV source; endogenous in cells; host or cells: Caco-2 (human colon carcinoma), differentiated to induce DPP-IV expression; solubilised in Nonidet-P40 buffer
T1 sequence (P27487 whole entry): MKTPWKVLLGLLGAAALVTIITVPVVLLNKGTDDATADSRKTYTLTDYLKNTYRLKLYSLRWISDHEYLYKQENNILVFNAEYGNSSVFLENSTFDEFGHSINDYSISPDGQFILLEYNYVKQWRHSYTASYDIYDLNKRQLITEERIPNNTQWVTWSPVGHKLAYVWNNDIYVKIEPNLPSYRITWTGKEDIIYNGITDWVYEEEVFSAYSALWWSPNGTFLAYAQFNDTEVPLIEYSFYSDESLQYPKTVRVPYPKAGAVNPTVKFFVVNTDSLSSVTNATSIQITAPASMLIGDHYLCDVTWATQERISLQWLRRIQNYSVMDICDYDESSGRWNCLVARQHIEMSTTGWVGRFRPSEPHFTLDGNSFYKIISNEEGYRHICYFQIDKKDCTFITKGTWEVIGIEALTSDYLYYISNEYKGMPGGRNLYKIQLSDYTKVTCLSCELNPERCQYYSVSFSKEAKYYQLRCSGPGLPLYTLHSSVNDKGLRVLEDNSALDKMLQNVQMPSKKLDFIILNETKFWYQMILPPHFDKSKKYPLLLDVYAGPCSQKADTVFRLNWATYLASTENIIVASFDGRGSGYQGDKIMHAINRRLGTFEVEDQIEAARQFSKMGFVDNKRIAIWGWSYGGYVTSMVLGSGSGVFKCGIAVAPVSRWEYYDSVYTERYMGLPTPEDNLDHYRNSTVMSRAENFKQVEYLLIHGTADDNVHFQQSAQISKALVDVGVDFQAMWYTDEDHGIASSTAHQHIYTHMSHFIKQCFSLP
The data set can be described thus: DPP-IV assay with extract of Caco-2 cells as DPP IV source, AFC substrate, fluorescence. Type of data set: biochemical. The note with it: extract of human colon carcinoma cell line Caco-2 as DPP IV source; substrate 100 μM; 60 minutes at ambient temperature; read-out: DPP IV inhibition IC50. The method, then:
The differentiation of the cells in order to induce the DPP-IV expression was carried out as described by Reiher et al. in an article entitled “Increased expression of intestinal cell line Caco-2”, which appeared in Proc. Natl. Acad. Sci. Vol. 90, pages 5757-5761 (1993). The cell extract was obtained from cells solubilised in a buffer (10 mM Tris HCl, 0.15 M NaCl, 0.04 t.i.u. aprotinin, 0.5% Nonidet-P40, pH 8.0) by centrifuging at 35,000 g for 30 minutes at 4° C. (to remove cell debris).
The DPP-IV assay was carried out as follows:
50 μl substrate solution (AFC; AFC is amido-4-trifluoromethylcoumarin), final concentration 100 μM, were placed in black microtitre plates. 20 μl of assay buffer (final concentrations 50 mM Tris HCl pH 7.8, 50 mM NaCl, 1% DMSO) was pipetted in. The reaction was started by adding 30 μl of solubilised Caco-2 protein (final concentration 0.14 μg of protein per well). The test substances to be investigated were typically added prediluted in 20 μl, and the volume of assay buffer was then reduced accordingly. The reaction was carried out at ambient temperature, incubating for 60 minutes. Then the fluorescence was measured in a Victor 1420 Multilabel Counter, the excitation wavelength being 405 nm and the emission wavelength being 535 nm. Blank readings (corresponding to 0% activity) were obtained in mixtures without any Caco-2 protein (volume replaced by assay buffer), control values (corresponding to 100% activity) were obtained in mixtures with no substance added. […]

The subject of the next data set is rats. The data set can be described thus: Tolerability after oral administration to rats (behaviour). The note with it: 10 mg/kg by oral route. Type of data set: in vivo, rat.

Consider `CC#CCn1c(N2CCCC(N)C2)nc2c1c(=O)n(CC1=NC(C)(C(=O)OC)Cc3ccccc31)c(=O)n2C` (centres unmarked) [1(1), 1-[(3-methoxycarbonyl-3-methyl-3,4-dihydro-isoquinolin-1-yl]methyl]-3-methyl-7-(2-butyn-1-yl)-8-(3-amino-piperidin-1-yl)-xanthine], for which the IC50 on DPP-IV turned out to be 32 nM. Turning to `CC#CCn1c(N2CCCC(N)C2)nc2c1c(=O)n(Cc1nc3ccccc3c3ccccc13)c(=O)n2C` (centres unmarked) [1(3), 1-[(phenanthridin-6-yl)methyl]-3-methyl-7-(2-butyn-1-yl)-8-(3-amino-piperidin-1-yl)-xanthine-dihydrochloride], at DPP-IV, the IC50 came to 5 nM.

For `CC#CCn1c(N2CCCC(N)C2)nc2c1c(=O)n(Cc1nc3c(c4ccccc14)CCCC3)c(=O)n2C` (centres unmarked) [1(4), 1-[(1,2,3,4-tetrahydro-phenanthridin-6-yl)methyl]-3-methyl-7-(2-butyn-1-yl)-8-(3-amino-piperidin-1-yl)-xanthine x trifluoroacetic acid], the IC50 on DPP-IV came out at 5 nM.

In the case of `CC#CCn1c(N2CCCC(N)C2)nc2c1c(=O)n(CC1=NC(C(F)(F)F)Cc3ccccc31)c(=O)n2C` (centres unmarked) [1(7), 1-[(3-trifluoromethyl-3,4-dihydro-isoquinolin-1-yl)methyl]-3-methyl-7-(2-butyn-1-yl)-8-(3-amino-piperidin-1-yl)-xanthine x trifluoroacetic acid], the IC50 on DPP-IV amounted to 11 nM. The same measure, in the same setting: the same measure for `CC#CCn1c(N2CCC[C@@H](N)C2)nc2c1c(=O)n(CC1=Nc3ccccc3Oc3ccccc31)c(=O)n2C` [1(8), 1-[(dibenzo[b,f][1,4]oxazepin-11-yl)methyl]-3-methyl-7-(2-butyn-1-yl)-8-((R)-3-amino-piperidin-1-yl)-xanthine]: 4 nM; for `CC#CCn1c(N2CCCC(N)C2)nc2c1c(=O)n(CC1=Nc3ccccc3CN1)c(=O)n2C` (centres unmarked) [1(10), 1-[(3,4-dihydro-quinazolin-2-yl)methyl]-3-methyl-7-(2-butyn-1-yl)-8-(3-amino-piperidin-1-yl)-xanthine]: 8 nM; for `CC#CCn1c(N2CCCC(N)C2)nc2c1c(=O)n(CC1=Nc3ccccc3N(C)c3ccccc31)c(=O)n2C` (centres unmarked) [1(12), 1-[(5-methyl-5H-dibenzo[b,e][1,4]diazepin-11-yl)methyl]-3-methyl-7-(2-butyn-1-yl)-8-(3-amino-piperidin-1-yl)-xanthine]: 14 nM. The same measure, in the same setting: the figure for `CC#CCn1c(N2CCCC(N)C2)nc2c1c(=O)n(Cc1ccc3nonc3c1)c(=O)n2C` (centres unmarked) [1(15), 1-[(benzo[1,2,5]oxadiazol-5-yl)methyl]-3-methyl-7-(2-butyn-1-yl)-8-(3-amino-piperidin-1-yl)-xanthine] is 11 nM.

Turning to `CC#CCn1c(N2CCC[C@@H](N)C2)nc2c1c(=O)n(Cc1nc3ccccc3c3ccccc13)c(=O)n2C1CC1` [1(20), 1-[(phenanthridin-6-yl)methyl]-3-cyclopropyl-7-(2-butyn-1-yl)-8-((R)-3-amino-piperidin-1-yl)-xanthine], the IC50 on DPP-IV was 10 nM.

For `CC#CCn1c(N2CCCC(N)C2)nc2c1c(=O)n(Cc1nc3ccccc3c3ncccc13)c(=O)n2C` (centres unmarked) [1(25), 1-[(benzo[h][1,6]naphthyridin-5-yl)methyl]-3-methyl-7-(2-butyn-1-yl)-8-(3-amino-piperidin-1-yl)-xanthine], the IC50 at DPP-IV was determined as 7 nM.

For the molecule `CC#CCn1c(N2CCCC(N)C2)nc2c1c(=O)n(Cc1nc3ccccc3c3ccnn13)c(=O)n2C` (centres unmarked) [1(26), 1-[(pyrazolo[1,5-c]quinazolin-5-yl)methyl]-3-methyl-7-(2-butyn-1-yl)-8-(3-amino-piperidin-1-yl)-xanthine], the IC50 on DPP-IV was found to be 7 nM. Same read-out and setting: the same measure for `CC#CCn1c(N2CCCC(N)C2)nc2c1c(=O)n(Cc1nc3ncccc3c3ccccc13)c(=O)n2C` (centres unmarked) [1(27), 1-[(benzo[c][1,8]naphthyridin-6-yl)methyl]-3-methyl-7-(2-butyn-1-yl)-8-(3-amino-piperidin-1-yl)-xanthine]: 2 nM; for `CC#CCn1c(N2CCC[C@@H](N)C2)nc2c1c(=O)n(Cc1nc3cccnc3c3ccccc13)c(=O)n2C` [1(28), 1-[(benzo[c][1,5]naphthyridin-6-yl)methyl]-3-methyl-7-(2-butyn-1-yl)-8-((R)-3-amino-piperidin-1-yl)-xanthine]: 2 nM. The same measure, in the same setting: the figure for `CC#CCn1c(N2CCC[C@@H](N)C2)nc2c1c(=O)n(CC1=Nc3cccc4cccc(c34)N1)c(=O)n2C` [1(29), 1-[(1H-perimidin-2-yl)methyl]-3-methyl-7-(2-butyn-1-yl)-8-((R)-3-amino-piperidin-1-yl)-xanthine] is 3 nM; for `CC#CCn1c(N2CCC[C@@H](N)C2)nc2c1c(=O)n(Cc1cc3nccnc3c3ccccc13)c(=O)n2C` [1(30), 1-[(benzo[f]quinoxalin-6-yl)methyl]-3-methyl-7-(2-butyn-1-yl)-8-((R)-3-amino-piperidin-1-yl)-xanthine] it is 3 nM. The same measure, in the same setting: the same measure for `CC#CCn1c(N2CCCC(N)C2)nc2c1c(=O)n(Cc1cn3c(ccc4ccccc43)n1)c(=O)n2C` (centres unmarked) [1(32)]: 4 nM; for `CC#CCn1c(N2CCC[C@@H](N)C2)nc2c1c(=O)n(Cc1nc3ccccc3c3ccccc13)c(=O)n2C` [1(33), 1-[(phenanthridin-6-yl)methyl]-3-methyl-7-(2-butyn-1-yl)-8-((R)-3-amino-piperidin-1-yl)-xanthine]: 4 nM. As to `C/C=C/Cn1c(N2CCC[C@@H](N)C2)nc2c1c(=O)n(CC1=NCC(=O)Nc3ccccc31)c(=O)n2C` [Example 1(2), 1-[(2-oxo-2,3-dihydro-1H-benzo[e][1,4]diazepin-5-yl)methyl]-3-methyl-7-((E)-2-buten-1-yl)-8-((R)-3-amino-piperidin-1-yl)-xanthine], at DPP-IV, the IC50 worked out at 6 nM. In addition, in the data set on rats, the “changes in the animals' behaviour” value is “no changes in the animals' behaviour could be detected”. `CC(C)=CCn1c(N2CCCC(N)C2)nc2c1c(=O)n(CC1=CS(=O)(=O)N(C)c3ccccc31)c(=O)n2C` (centres unmarked) [Example 1, 1-[(1-methyl-2,2-dioxo-1H-benzo[c][1,2]thiazin-4-yl)methyl]-3-methyl-7-(3-methyl-2-buten-1-yl)-8-(3-amino-piperidin-1-yl)-xanthine] had a melting point of 200 to 205 °C. The IC50 on DPP-IV turned out to be 13 nM. With `CC#CCn1c(N2CCCC(N)C2)nc2c1c(=O)n(CC1=NCCOc3ccccc31)c(=O)n2C` (centres unmarked) [Example 2, 1-[(2,3-dihydro-benzo[f][1,4]oxazepin-5-yl)methyl]-3-methyl-7-(2-butyn-1-yl)-8-(3-amino-piperidin-1-yl)-xanthine], the IC50 at DPP-IV was found to be 6 nM.

On to `CC(C)=CCn1c(N2CCCC(N)C2)nc2c1c(=O)n(/C=C1\NC(=O)c3ccccc31)c(=O)n2C` (centres unmarked) [Example 3, 1-[(3-oxo-2,3-dihydro-isoindol-1-ylidene)methyl]-3-methyl-7-(3-methyl-2-buten-1-yl)-8-(3-amino-piperidin-1-yl)-xanthine], for which the IC50 at DPP-IV came out at 20 nM.
